Assay results reported in patent US20240247015A1, “PHOSPHORUS DERIVATIVES AS NOVEL SOS1 INHIBITORS” (BAYER AKTIENGESELLSCHAFT, priority 2021, published 2024).

The compounds below were run against interaction of human SOS1 (SOS1) with human K-RasG12C (Homo sapiens (Human), UniProt Q07889) (assay: Biochemical assay: hK-RasG12C interaction assay with hSOS1 (HTRF)). Conditions: GST-hK-RasG12C with His-hSOS1, 60 min incubation at 20° C., mean, read-out: K-RasG12C - SOS interaction assay IC50 (mean).
interaction of human SOS1 (SOS1) with human K-RasG12C, sequence (Q07889 564-1049 limits assumed): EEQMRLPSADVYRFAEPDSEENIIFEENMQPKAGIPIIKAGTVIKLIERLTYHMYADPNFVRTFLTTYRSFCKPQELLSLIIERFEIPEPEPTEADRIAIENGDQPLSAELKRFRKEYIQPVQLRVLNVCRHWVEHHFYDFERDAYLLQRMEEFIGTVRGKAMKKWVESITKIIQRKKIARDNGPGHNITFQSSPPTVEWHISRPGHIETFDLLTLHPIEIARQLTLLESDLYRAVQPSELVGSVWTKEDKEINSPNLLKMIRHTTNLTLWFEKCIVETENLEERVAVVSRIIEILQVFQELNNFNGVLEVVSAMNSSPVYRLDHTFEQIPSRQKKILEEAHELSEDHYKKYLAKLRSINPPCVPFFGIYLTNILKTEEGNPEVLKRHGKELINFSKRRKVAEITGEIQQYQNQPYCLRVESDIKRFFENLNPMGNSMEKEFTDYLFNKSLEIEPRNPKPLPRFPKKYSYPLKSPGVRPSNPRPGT
Format: binding
Method: Biochemical Assay: hK-RasG12C Interaction Assay with hSOS1 This assay quantifies the equilibrium interaction of human SOS1 (SOS1) with human K-Ras^G12^C (K-RasG12C). Detection of the interaction is achieved by measuring homogenous time-resolved fluorescence resonance energy transfer (HTRF) from antiGST-Europium (FRET donor) bound to GST-K-RasG12C to anti-6His-XL665 bound to His-tagged hSOS1 (FRET-acceptor). The assay buffer containes 5 mM HEPES pH 7.4 (Applichem), 150 mM NaCl (Sigma), […] (Promega), 1 mM DTT (Thermofisher), 0.05% BSA Fraction V, pH 7.0, (ICN Biomedicals), 0.0025% (v/v) Igepal (Sigma) and 100 mM KF (FLUKA). The expression and purification of N-terminally GST-tagged human K-RasG12C (termed GST-hK-RasG12C) and N-terminally His-tagged human SOS1 (termed His10-hSOS1) is described in WO 2019/201848, page 220 line 12-34 and page 222, line 13-25 (expression) and page 222, line 26 to page 223, line 17 (purification). Concentrations of protein batches used are optimized to be within the linear range of the HTRF signal. A Ras working solution is prepared in assay buffer containing typically 10 nM GST-hK-RasG12C and 2 nM antiGST-Eu(K) (Cisbio, France). A SOS1 working solution is prepared in assay buffer containing typically 20 nM His-hSOS1 and 10 nM anti-6His-XL665 (Cisbio, France). An inhibitor control solution is prepared in assay buffer containing nM anti-6His-XL665 without SOS1. Fifty nl of a 100-fold concentrated solution of the test compound in DMSO are transferred into a black microtiter test plate (384 or 1536, Greiner Bio-One, Germany). For this, either a Hummingbird liquid handler (Digilab, MA, USA) or an Echo acoustic system (Labcyte, CA, USA) is used. All steps of the assay are performed at 20° C. A volume of 2.5 μl of the Ras working solution is added to all wells of the test plate using a Multidrop dispenser (Thermo Labsystems). After 2 min preincubation, 2.5 μl of the SOS1 working solution are added to all wells except for those wells at the side of the test plate that are subsequently filled with 2.5 μl of the inhibitor control solution. After 60 min incubation the fluorescence is measured with a Pherastar (BMG, Germany) using the HTRF module (excitation 337 nm, emission 1: 620 nm, emission 2: 665 nm). The ratiometric data (emission 2 divided by emission 1) are normalized using the controls (DMSO=0% inhibition, inhibition control wells with inhibitor control solution=100% inhibition). Compounds are tested in duplicates at up to 11 concentrations (for 20 μM, 5,7 μM, 1,6 μM, 0.47 μM, 0.13 μM, 38 nM, 11 nM, 3.1 nM, 0.89 nM, 0.25 nM and 0.073 nM). IC50 values are calculated by 4-Parameter fitting using a commercial software package (Genedata Screener, Switzerland).

In order of falling IC50:
1. Cc1nc(N[C@H](C)c2cccc(C(F)(F)F)c2C)c2cc(P3(=O)CCN(Cc4ccccc4)CC3)ncc2n1 [Example 5, 1-benzyl-4-[2-methyl-4-({(1R)-1-[2-methyl-3-(trifluoromethyl)phenyl]ethyl}amino)pyrido[3,4-d]pyrimidin-6-yl]-1,4lambda^5-azaphosphinan-4-one]  261 nM
2. Cc1nc(N[C@H](C)c2cccc(C(F)(F)C(C)(C)O)c2F)c2cc(P(=O)(C(C)C)C(C)C)c(C)nc2n1 [Example 21, 1-{3-[(1R)-1-({6-[di(propan-2-yl)phosphoryl]-2,7-dimethylpyrido[2,3-d]pyrimidin-4-yl}amino)ethyl]-2-fluorophenyl}-1,1-difluoro-2-methylpropan-2-ol]  121 nM
3. Cc1nc(N[C@H](C)c2cccc(C(F)F)c2F)c2cc(P3(=O)CCN(Cc4ccccc4)CC3)ncc2n1 [Example 8, 1-benzyl-4-[4-({(1R)-1-[3-(difluoromethyl)-2-fluorophenyl]ethyl}amino)-2-methylpyrido[3,4-d]pyrimidin-6-yl]-1,4lambda^5-azaphosphinan-4-one]  94 nM
4. Cc1nc(N[C@H](C)c2cccc(C(F)(F)C(C)(C)O)c2F)c2cc(P(=O)(C(C)C)C(C)C)ncc2n1 [Example 12, 1-{3-[(1R)-1-({6-[di(propan-2-yl)phosphoryl]-2-methylpyrido[3,4-d]pyrimidin-4-yl}amino)ethyl]-2-fluorophenyl}-1,1-difluoro-2-methylpropan-2-ol]  59.4 nM
5. Cc1nc(N[C@H](C)c2cccc(C(F)(F)C(C)(C)O)c2F)c2cc(P(C)(C)=O)nc(C)c2n1 [Example 11, 1-{3-[(1R)-1-{[6-(dimethylphosphoryl)-2,8-dimethylpyrido[3,4-d]pyrimidin-4-yl]amino}ethyl]-2-fluorophenyl}-1,1-difluoro-2-methylpropan-2-ol]  52.9 nM
6. Cc1nc(N[C@H](C)c2cccc(C(F)F)c2F)c2cc(P(C)(C)=O)ncc2n1 [Example 2, N-{(1R)-1-[3-(difluoromethyl)-2-fluorophenyl]ethyl}-6-(dimethylphosphoryl)-2-methylpyrido[3,4-d]pyrimidin-4-amine]  50.8 nM
7. Cc1nc(N[C@H](C)c2cccc(C(F)(F)C(C)(C)O)c2F)c2cc(P(=O)(C(C)C)C(C)C)cnc2n1 [Example 15, 1-{3-[(1R)-1-({6-[di(propan-2-yl)phosphoryl]-2-methylpyrido[2,3-d]pyrimidin-4-yl}amino)ethyl]-2-fluorophenyl}-1,1-difluoro-2-methylpropan-2-ol]  47.1 nM
8. Cc1nc(N[C@H](C)c2cccc(C(F)(F)C(O)C(C)(C)C)c2F)c2cc(P(C)(C)=O)ncc2n1 (stereo in doubt) [Example 136, (2R*)-1-{3-[(1R)-1-{[6-(dimethylphosphoryl)-2-methylpyrido[3,4-d]pyrimidin-4-yl]amino}ethyl]-2-fluorophenyl}-1,1-difluoro-3,3-dimethylbutan-2-ol]  38.9 nM
9. Cc1nc(N[C@H](C)c2cccc(C(F)(F)C(C)O)c2F)c2cc(P(C)(C)=O)ncc2n1 (stereo in doubt) [Example 86, (2R*)-1-{3-[(1R)-1-{[6-(dimethylphosphoryl)-2-methylpyrido[3,4-d]pyrimidin-4-yl]amino}ethyl]-2-fluorophenyl}-1,1-difluoropropan-2-ol]  36.6 nM
10. Cc1nc(N[C@H](C)c2cccc(C(F)F)c2F)c2cc(P(C)(C)=O)c(C)nc2n1 [Example 18, N-{(1R)-1-[3-(difluoromethyl)-2-fluorophenyl]ethyl}-6-(dimethylphosphoryl)-2,7-dimethylpyrido[2,3-d]pyrimidin-4-amine]  27.7 nM
11. CCP(=O)(CC)c1cc2c(N[C@H](C)c3cccc(C(F)(F)C(C)O)c3F)nc(C)nc2cn1 (stereo in doubt) [Example 90, (2R*)-1-{3-[(1R)-1-{[6-(diethylphosphoryl)-2-methylpyrido[3,4-d]pyrimidin-4-yl]amino}ethyl]-2-fluorophenyl}-1,1-difluoropropan-2-ol]  26.6 nM
12. Cc1nc(N[C@H](C)c2cccc(C(F)F)c2F)c2cc(P3(=O)CCNCC3)ncc2n1 [Example 9, 4-[4-({(1R)-1-[3-(difluoromethyl)-2-fluorophenyl]ethyl}amino)-2-methylpyrido[3,4-d]pyrimidin-6-yl]-1,4lambda^5-azaphosphinan-4-one]  22.3 nM
13. Cc1nc(N[C@H](C)c2cccc(C(F)(F)F)c2C)c2cc(P(C)(C)=O)ncc2n1 [Example 1, 6-(dimethylphosphoryl)-2-methyl-N-{(1R)-1-[2-methyl-3-(trifluoromethyl)phenyl]ethyl}pyrido[3,4-d]pyrimidin-4-amine]  20.6 nM
14. Cc1nc(N[C@H](C)c2cccc(C(F)(F)C(C)(C)O)c2F)c2cc(P(C)(C)=O)ncc2n1 [Example 3, 1-{3-[(1R)-1-{[6-(dimethylphosphoryl)-2-methylpyrido[3,4-d]pyrimidin-4-yl]amino}ethyl]-2-fluorophenyl}-1,1-difluoro-2-methylpropan-2-ol]  19.1 nM
15. Cc1nc(N[C@H](C)c2cccc(C(F)(F)F)c2C)c2cc(P(C)(C)=O)cnc2n1 [Example 13, 6-(dimethylphosphoryl)-2-methyl-N-{(1R)-1-[2-methyl-3-(trifluoromethyl)phenyl]ethyl}pyrido[2,3-d]pyrimidin-4-amine]  16.3 nM
16. Cc1nc(N[C@H](C)c2cccc(C(F)(F)C(C)(C)O)c2F)c2cc(P(C)(C)=O)c(C)nc2n1 [Example 19, 1-{3-[(1R)-1-{[6-(dimethylphosphoryl)-2,7-dimethylpyrido[2,3-d]pyrimidin-4-yl]amino}ethyl]-2-fluorophenyl}-1,1-difluoro-2-methylpropan-2-ol]  14.3 nM
17. Cc1nc(N[C@H](C)c2cccc(C(F)(F)C(C)(C)O)c2F)c2cc(P3(=O)CCCC3)ncc2n1 [Example 4, 1-[4-({(1R)-1-[3-(1,1-difluoro-2-hydroxy-2-methylpropyl)-2-fluorophenyl]ethyl}amino)-2-methylpyrido[3,4-d]pyrimidin-6-yl]-1lambda^5-phospholan-1-one]  12.8 nM
18. Cc1nc(N[C@H](C)c2cccc(C(F)(F)C(C)(C)O)c2F)c2cc(P3(=O)CCCC3)cnc2n1 [Example 16, 1-[4-({(1R)-1-[3-(1,1-difluoro-2-hydroxy-2-methylpropyl)-2-fluorophenyl]ethyl}amino)-2-methylpyrido[2,3-d]pyrimidin-6-yl]-1lambda^5-phospholan-1-one]  10.6 nM
19. Cc1nc(N[C@H](C)c2cccc(C(F)(F)F)c2C)c2cc(P(C)(C)=O)c(C)nc2n1 [Example 17, 6-(dimethylphosphoryl)-2,7-dimethyl-N-{(1R)-1-[2-methyl-3-(trifluoromethyl)phenyl]ethyl}pyrido[2,3-d]pyrimidin-4-amine]  10.6 nM
20. Cc1nc(N[C@H](C)c2cccc(C(F)(F)C(C)(C)O)c2F)c2cc(P(C)(C)=O)cnc2n1 [Example 14, 1-{3-[(1R)-1-{[6-(dimethylphosphoryl)-2-methylpyrido[2,3-d]pyrimidin-4-yl]amino}ethyl]-2-fluorophenyl}-1,1-difluoro-2-methylpropan-2-ol]  9.78 nM
21. CC(=O)N1CCP(=O)(c2cc3c(N[C@H](C)c4cccc(C(F)F)c4F)nc(C)nc3cn2)CC1 [Example 10, 1-acetyl-4-[4-({(1R)-1-[3-(difluoromethyl)-2-fluorophenyl]ethyl}amino)-2-methylpyrido[3,4-d]pyrimidin-6-yl]-1,4lambda^5-azaphosphinan-4-one]  7.8 nM
22. Cc1nc(N[C@H](C)c2cccc(C(F)(F)C(C)(C)O)c2F)c2cc(P3(=O)CCCC3)c(C)nc2n1 [Example 20, 1-[4-({(1R)-1-[3-(1,1-difluoro-2-hydroxy-2-methylpropyl)-2-fluorophenyl]ethyl}amino)-2,7-dimethylpyrido[2,3-d]pyrimidin-6-yl]-1lambda^5-phospholan-1-one]  7.21 nM
23. CC(=O)N1CCP(=O)(c2cc3c(N[C@H](C)c4cccc(C(F)(F)F)c4C)nc(C)nc3cn2)CC1 [Example 7, 1-acetyl-4-[2-methyl-4-({(1R)-1-[2-methyl-3-(trifluoromethyl)phenyl]ethyl}amino)pyrido[3,4-d]pyrimidin-6-yl]-1,4lambda^5-azaphosphinan-4-one]  6.24 nM
